Experimental data as given in US20050233973A1, “Tri-peptides for antidepressant applications” (priority 1997, published 2005).
Non-standard residues stand in square brackets, D forms with d. Residues, ends and D or L forms follow the SMILES beside them. pGlu = O=C1CC[C@@H](C(=O)O)N1

Test system: Porsolt forced swim animal model of depression
Assay: Porsolt swim test
Type: in vivo, rats
Conditions: 0.05 mg/kg (ip)
Method: Total immobility time versus swim time was recorded. Both high-dose (0.5 mg/kg sc) and low-dose injections (0.05 mg/kg ip) were used.

Row | Structure (SMILES) | mean immobility time
1 | NC(=O)[C@@H]1CCCN1C(=O)[C@H](CCC(=O)O)NC(=O)[C@@H]1CCC(=O)N1 [R^2 = Glu, pGlu-Glu-Pro-NH2] ([pGlu]-Glu-Pro-NH2) | 121 s

Same assay, conditions: 0.5 mg/kg (sc)

Row | Structure (SMILES) | mean immobility time
2 | NC(=O)[C@@H]1CCCN1C(=O)[C@H](CCC(=O)O)NC(=O)[C@@H]1CCC(=O)N1 [R^2 = Glu, pGlu-Glu-Pro-NH2] ([pGlu]-Glu-Pro-NH2) | 58 s
3 | NC(=O)[C@@H]1CCCN1C(=O)[C@H](Cc1ccccc1)NC(=O)[C@@H]1CCC(=O)N1 [R^2 = Phe, pGlu-Phe-Pro-NH2] ([pGlu]-Phe-Pro-NH2) | 125 s

Same assay, conditions: high-dose (0.5 mg/kg sc), three injections

Row | Structure (SMILES) | antidepressant effect compared to saline (total immobility time)
4 | NC(=O)[C@@H]1CCCN1C(=O)[C@H](CCC(=O)O)NC(=O)[C@@H]1CCC(=O)N1 [R^2 = Glu, pGlu-Glu-Pro-NH2] ([pGlu]-Glu-Pro-NH2) | effective
5 | NC(=O)[C@@H]1CCCN1C(=O)[C@H](Cc1ccccc1)NC(=O)[C@@H]1CCC(=O)N1 [R^2 = Phe, pGlu-Phe-Pro-NH2] ([pGlu]-Phe-Pro-NH2) | effective

Same assay, conditions: low-dose (0.05 mg/kg ip), three injections

Row | Structure (SMILES) | antidepressant effect compared to saline (total immobility time)
6 | NC(=O)[C@@H]1CCCN1C(=O)[C@H](CCC(=O)O)NC(=O)[C@@H]1CCC(=O)N1 [R^2 = Glu, pGlu-Glu-Pro-NH2] ([pGlu]-Glu-Pro-NH2) | effective

Test system: pentobarbital-anesthetized rats
Assay: not given
Type: in vivo, male Wistar rats
Conditions: IC injection of 10 μg
Method: Twenty minutes after loss of the righting reflex, 10 μL of either sterile saline or peptide of this invention (1 or 10 μg/10 μL sterile saline) was administered by intracisternal (IC) injection. The time from IC injection to recovery of the righting reflex, as measured three times within 10 seconds, was recorded.

Row | Structure (SMILES) | reduction in pentobarbitol-induced sleep time (analeptic effect)
7 | NC(=O)[C@@H]1CCCN1C(=O)[C@H](CCC(=O)O)NC(=O)[C@@H]1CCC(=O)N1 [R^2 = Glu, pGlu-Glu-Pro-NH2] ([pGlu]-Glu-Pro-NH2) | had an analeptic effect

Same assay, conditions: rat, in vivo

Row | Structure (SMILES) | "wet dog" shaking while still anesthetized
8 | NC(=O)[C@@H]1CCCN1C(=O)[C@H](CCC(=O)O)NC(=O)[C@@H]1CCC(=O)N1 [R^2 = Glu, pGlu-Glu-Pro-NH2] ([pGlu]-Glu-Pro-NH2) | never produced shaking

Test system: EEP (R^2=Glu) antibody (580B6)
Assay: not given
Conditions: tracer 125I-TRH; assay standard = 1.00

Row | Structure (SMILES) | relative potency for displacement of assay tracer
9 | NC(=O)[C@@H]1CCCN1C(=O)[C@H](CCC(=O)O)NC(=O)[C@@H]1CCC(=O)N1 [R^2 = Glu, pGlu-Glu-Pro-NH2] ([pGlu]-Glu-Pro-NH2) | 1.00

Test system: CR-V3-B53 antibody (raised to TRH)
Assay: not given
Conditions: tracer 125I-TRH; assay standard = 1.00

Row | Structure (SMILES) | relative potency for displacement of assay tracer
10 | NC(=O)[C@@H]1CCCN1C(=O)[C@H](CCC(=O)O)NC(=O)[C@@H]1CCC(=O)N1 [R^2 = Glu, pGlu-Glu-Pro-NH2] ([pGlu]-Glu-Pro-NH2) | 0.0092

Test system: not listed separately
Assay: Brain tissue analysis of TRH and EEP after peptide injection
Type: in vivo, rats
Conditions: 0.5 mg/kg (sc)

Row | Structure (SMILES) | changes in TRH or EEP in brain regions (tissue analysis)
11 | NC(=O)[C@@H]1CCCN1C(=O)[C@H](CCC(=O)O)NC(=O)[C@@H]1CCC(=O)N1 [R^2 = Glu, pGlu-Glu-Pro-NH2] ([pGlu]-Glu-Pro-NH2) | failed to find any changes
12 | NC(=O)[C@@H]1CCCN1C(=O)[C@H](Cc1ccccc1)NC(=O)[C@@H]1CCC(=O)N1 [R^2 = Phe, pGlu-Phe-Pro-NH2] ([pGlu]-Phe-Pro-NH2) | failed to find any changes

Test system: not listed separately
Assay: Serum T3 and T4 levels in Porsolt test animals
Type: in vivo, rats
Conditions: R^2=Glu experiment, 0.5 mg/kg (sc); no significant difference to saline
Method: A Porsolt swim test with rats was used to examine the antidepressant effects of peptides where R^2=Glu or R^2=Phe, as set forth in Lloyd, R. L. et al., Pharamcology, Biochemistry and Behavior, 70:15-22 (2001), incorporated herein by reference. […] No effect of the blocking variable or interaction of the blocking variable with treatment was found.
Using the animal models of Example 11, T3 (triiodothyronine) and T4 (thyroxine) levels were tested. Serum T3 was determined by […], using fluorescence polarization of a fixed concentration of a fluorescent analog of T3 as provided in the Abbott IMX System. T4 was also determined by radioimmunoassay. With EEP, no changes in T3 were observed. […] With ELP (where R^2 is Leu) and EFP there was an increase in T3, but this was not correlated to swim scores, with ELP not producing a behavioral effect, and EFP producing a marginal behavioral effect.

Row | Structure (SMILES) | T3 level
13 | NC(=O)[C@@H]1CCCN1C(=O)[C@H](CCC(=O)O)NC(=O)[C@@H]1CCC(=O)N1 [R^2 = Glu, pGlu-Glu-Pro-NH2] ([pGlu]-Glu-Pro-NH2) | 0.66 ng/mL

Same assay, conditions: R^2=Phe experiment, 0.5 mg/kg (sc); significant increase vs controls (P<0.028, one-tailed)

Row | Structure (SMILES) | T3 level
14 | NC(=O)[C@@H]1CCCN1C(=O)[C@H](CCC(=O)O)NC(=O)[C@@H]1CCC(=O)N1 [R^2 = Glu, pGlu-Glu-Pro-NH2] ([pGlu]-Glu-Pro-NH2) | 0.85 ng/mL

Same assay, conditions: animals of the Porsolt test

Row | Structure (SMILES) | change in T3
15 | NC(=O)[C@@H]1CCCN1C(=O)[C@H](CCC(=O)O)NC(=O)[C@@H]1CCC(=O)N1 [R^2 = Glu, pGlu-Glu-Pro-NH2] ([pGlu]-Glu-Pro-NH2) | no changes
16 | NC(=O)[C@@H]1CCCN1C(=O)[C@H](Cc1ccccc1)NC(=O)[C@@H]1CCC(=O)N1 [R^2 = Phe, pGlu-Phe-Pro-NH2] ([pGlu]-Phe-Pro-NH2) | increase

Same assay, conditions: at the dosage used

Row | Structure (SMILES) | effect upon T3 or T4 levels
17 | NC(=O)[C@@H]1CCCN1C(=O)[C@H](CCC(=O)O)NC(=O)[C@@H]1CCC(=O)N1 [R^2 = Glu, pGlu-Glu-Pro-NH2] ([pGlu]-Glu-Pro-NH2) | No effect

Test system: 465B12 antibody (raised to TRH)
Assay: not given
Conditions: tracer 125I-TRH; assay standard = 1.00

Row | Structure (SMILES) | relative potency for displacement of assay tracer
18 | NC(=O)[C@@H]1CCCN1C(=O)[C@H](CCC(=O)O)NC(=O)[C@@H]1CCC(=O)N1 [R^2 = Glu, pGlu-Glu-Pro-NH2] ([pGlu]-Glu-Pro-NH2) | 0.02

Target: T1, TRH receptor-2 (TRHR-2) (Rattus norvegicus, UniProt A6IZR3)
T1 sequence (A6IZR3 1-352): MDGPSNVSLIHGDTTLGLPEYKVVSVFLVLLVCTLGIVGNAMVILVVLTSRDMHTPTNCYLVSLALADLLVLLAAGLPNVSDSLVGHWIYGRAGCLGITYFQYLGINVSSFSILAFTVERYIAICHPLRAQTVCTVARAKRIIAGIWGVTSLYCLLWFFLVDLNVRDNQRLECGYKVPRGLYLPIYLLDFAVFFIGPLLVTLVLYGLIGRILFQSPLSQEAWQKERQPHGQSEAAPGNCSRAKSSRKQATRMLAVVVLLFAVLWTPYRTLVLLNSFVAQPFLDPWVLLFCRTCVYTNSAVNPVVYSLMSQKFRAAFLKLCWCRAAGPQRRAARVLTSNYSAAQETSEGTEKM
Assay: [3H]TRH competition binding, HEK293 cells expressing TRHR-2
Conditions: not given

Row | Structure (SMILES) | IC50
19 | NC(=O)[C@@H]1CCCN1C(=O)[C@H](CCC(=O)O)NC(=O)[C@@H]1CCC(=O)N1 [R^2 = Glu, pGlu-Glu-Pro-NH2] ([pGlu]-Glu-Pro-NH2) | > 282 µM
20 | NC(=O)[C@@H]1CCCN1C(=O)[C@H](Cc1ccccc1)NC(=O)[C@@H]1CCC(=O)N1 [R^2 = Phe, pGlu-Phe-Pro-NH2] ([pGlu]-Phe-Pro-NH2) | 3.36 µM

Target: T2, TRH receptor-1 (TRHR-1) (Mus musculus, UniProt P21761)
T2 sequence (P21761 1-393): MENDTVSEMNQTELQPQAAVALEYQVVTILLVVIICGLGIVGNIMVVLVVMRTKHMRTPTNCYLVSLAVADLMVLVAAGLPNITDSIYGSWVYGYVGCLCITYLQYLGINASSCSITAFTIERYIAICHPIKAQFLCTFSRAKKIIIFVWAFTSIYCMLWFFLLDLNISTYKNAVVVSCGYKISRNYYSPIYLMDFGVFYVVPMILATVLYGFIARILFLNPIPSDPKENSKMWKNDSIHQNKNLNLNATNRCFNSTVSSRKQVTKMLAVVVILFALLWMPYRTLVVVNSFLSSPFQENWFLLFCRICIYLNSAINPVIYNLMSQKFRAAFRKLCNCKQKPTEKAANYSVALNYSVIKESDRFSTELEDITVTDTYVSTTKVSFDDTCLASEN
Assay: [3H]TRH competition binding, HEK293 cells expressing TRHR-1
Conditions: not given

Row | Structure (SMILES) | IC50
21 | NC(=O)[C@@H]1CCCN1C(=O)[C@H](CCC(=O)O)NC(=O)[C@@H]1CCC(=O)N1 [R^2 = Glu, pGlu-Glu-Pro-NH2] ([pGlu]-Glu-Pro-NH2) | > 282 µM
